Reference: ChEMBL document CHEMBL1201862, “PubChem BioAssay data set” (2004)
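Exposure lasted 48 hours, with cells grown in 96-well plates and compounds tested at five concentrations. Here, GI50 denotes the concentration required for 50% inhibition of growth.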 Active and inactive are the calls of the source. Cut-off read from the data, not from the text of the source: active = GI50 up to about 1.1 µM and inactive = higher.

Columns and labels:
Assay in all cases: NCI-60 cell line screen, 48 h
CAKI-1 = system: CAKI-1
HL-60 = system: HL-60
HOP-62 = system: HOP-62
K562 = system: K562
KM12 = system: KM12
LOX IMVI = system: LOX IMVI
NCI-H226 = system: NCI-H226
NCI-H23 = system: NCI-H23
OVCAR-4 = system: OVCAR-4
OVCAR-5 = system: OVCAR-5
SF-539 = system: SF-539
SK-MEL-28 = system: SK-MEL-28
SNB-19 = system: SNB-19
SNB-78 = system: SNB-78
CCRF-CEM = system: CCRF-CEM
SR = system: SR
DU-145 = system: DU-145
MCF7 = system: MCF7
NCI/ADR-RES = system: NCI/ADR-RES
PC-3 = system: PC-3

| SMILES | GI50 (CAKI-1) | GI50 (HL-60) | GI50 (HOP-62) | GI50 (K562) | GI50 (KM12) | GI50 (LOX IMVI) | GI50 (NCI-H226) | GI50 (NCI-H23) | GI50 (OVCAR-4) | GI50 (OVCAR-5) | GI50 (SF-539) | GI50 (SK-MEL-28) | GI50 (SNB-19) | GI50 (SNB-78) | GI50 (CCRF-CEM) | GI50 (SR) | GI50 (DU-145) | GI50 (MCF7) | GI50 (NCI/ADR-RES) | GI50 (PC-3) |
| --- | --- | --- | --- | --- | --- | --- | --- | --- | --- | --- | --- | --- | --- | --- | --- | --- | --- | --- | --- | --- |
| CCC1CN2CCc3cc(OC)c(OC)cc3C2CC1CC1c2cc(OC)c(OC)cc2CCN1C(=O)C1CCCN1C(=O)OCc1ccccc1 (configuration not stated) | 20.3 µM (inactive) | 13.1 µM (inactive) | 16.2 µM (inactive) | 16.2 µM (inactive) | 16.3 µM (inactive) | 15 µM (inactive) | 16.1 µM (inactive) | 16.3 µM (inactive) | 12.2 µM (inactive) | 18.1 µM (inactive) | 18.7 µM (inactive) | 16.9 µM (inactive) | 24.3 µM (inactive) | 16 µM (inactive) | – | – | – | – | – | – |
| COc1ccc(C(=O)C(c2ccc(OC)cc2)C2(O)C(=O)Nc3c2ccc(Cl)c3C)cc1 (configuration not stated) | – | > 100 µM (inactive) | > 100 µM (inactive) | > 100 µM (inactive) | > 100 µM (inactive) | 91.2 µM (inactive) | > 100 µM (inactive) | > 100 µM (inactive) | > 100 µM (inactive) | > 100 µM (inactive) | – | > 100 µM (inactive) | > 100 µM (inactive) | > 100 µM (inactive) | > 100 µM (inactive) | – | – | – | – | – |
| CC(C)C1CC2C(=O)N(c3ccccc3)C(=O)C2c2[nH]c3ccccc3c21 (configuration not stated) | 5.68 µM (inactive) | 7.45 µM (inactive) | 29.2 µM (inactive) | 4.85 µM (inactive) | 9.91 µM (inactive) | – | 16.2 µM (inactive) | 19.5 µM (inactive) | 2.32 µM (inactive) | > 100 µM (inactive) | 13.8 µM (inactive) | 23.4 µM (inactive) | – | 22.4 µM (inactive) | 14 µM (inactive) | – | – | – | – | – |
| C[C@]12CC[C@@H]3c4ccccc4CC[C@H]3[C@@H]1CC[C@@H]2O | – | > 10 µM (inactive) | > 100 µM (inactive) | 32.1 µM (inactive) | 68.7 µM (inactive) | 77.4 µM (inactive) | – | > 100 µM (inactive) | – | – | 43.1 µM (inactive) | > 100 µM (inactive) | > 100 µM (inactive) | > 100 µM (inactive) | 62.5 µM (inactive) | 56.1 µM (inactive) | – | – | – | – |
| O=c1c2ccccc2sc2c(CO)ccc(NCCN3CCCCC3)c12 | 3.45 µM (inactive) | 3.08 µM (inactive) | 3.24 µM (inactive) | 2 µM (inactive) | 3.55 µM (inactive) | 2.86 µM (inactive) | 2.85 µM (inactive) | 2.96 µM (inactive) | 2.48 µM (inactive) | 6.35 µM (inactive) | 5 µM (inactive) | 2.9 µM (inactive) | 4.73 µM (inactive) | – | 1.15 µM (inactive) | 0.497 µM (active) | 2.54 µM (inactive) | 2.99 µM (inactive) | 2.64 µM (inactive) | 4.31 µM (inactive) |
| Brc1ccc2[nH]cc(-c3csc(-c4ccccn4)n3)c2c1 | 17.1 µM (inactive) | 26.5 µM (inactive) | 15.8 µM (inactive) | 5.38 µM (inactive) | 9.16 µM (inactive) | 8.69 µM (inactive) | 11.6 µM (inactive) | 47.4 µM (inactive) | 14.4 µM (inactive) | > 51.1 µM (inactive) | 25.3 µM (inactive) | 53.1 µM (inactive) | 35 µM (inactive) | – | 13.2 µM (inactive) | 15.4 µM (inactive) | 17.9 µM (inactive) | 10.3 µM (inactive) | > 100 µM (inactive) | 14.2 µM (inactive) |
| COC1=C(OC)C23CCc4ccc(OC)c(O)c4C2(CCN3)CC1=O (configuration not stated) | > 100 µM (inactive) | > 100 µM (inactive) | > 100 µM (inactive) | > 100 µM (inactive) | > 100 µM (inactive) | > 100 µM (inactive) | > 100 µM (inactive) | > 100 µM (inactive) | > 100 µM (inactive) | > 100 µM (inactive) | > 100 µM (inactive) | > 100 µM (inactive) | > 100 µM (inactive) | – | > 100 µM (inactive) | > 100 µM (inactive) | > 100 µM (inactive) | > 100 µM (inactive) | > 100 µM (inactive) | > 100 µM (inactive) |
| COS(=O)c1cc(Cl)cc(Cl)c1OC(=O)CSSCC(=O)Oc1c(Cl)cc(Cl)cc1S(=O)OC (configuration not stated) | 26.6 µM (inactive) | 22.4 µM (inactive) | > 10 µM (inactive) | 20.4 µM (inactive) | 14.8 µM (inactive) | 16 µM (inactive) | – | 11.2 µM (inactive) | 19.3 µM (inactive) | 16.7 µM (inactive) | 13.8 µM (inactive) | 12.4 µM (inactive) | 5.24 µM (inactive) | 22.9 µM (inactive) | 19.6 µM (inactive) | – | – | – | – | – |
| N#CC(/C(=N\NC(=O)c1ccncc1)C(=O)Nc1ccc([N+](=O)[O-])cc1[N+](=O)[O-])c1nc(-c2ccc(Br)cc2)cs1 (configuration not stated) | > 100 µM (inactive) | > 100 µM (inactive) | > 100 µM (inactive) | > 100 µM (inactive) | > 100 µM (inactive) | > 100 µM (inactive) | – | – | > 100 µM (inactive) | > 100 µM (inactive) | > 100 µM (inactive) | > 100 µM (inactive) | > 100 µM (inactive) | > 100 µM (inactive) | > 100 µM (inactive) | – | – | – | – | – |
| CC(=O)Nc1ccccc1-c1nc2ccccc2nc1-c1ccccc1 | > 100 µM (inactive) | > 100 µM (inactive) | > 100 µM (inactive) | > 100 µM (inactive) | > 100 µM (inactive) | – | – | > 100 µM (inactive) | > 100 µM (inactive) | – | > 100 µM (inactive) | > 100 µM (inactive) | > 100 µM (inactive) | > 100 µM (inactive) | > 100 µM (inactive) | > 100 µM (inactive) | – | – | – | – |
| COc1cccc(CCN2CCN(CCCc3ccccc3)CC2)c1 | 67.3 µM (inactive) | 61.4 µM (inactive) | 79.1 µM (inactive) | 32.1 µM (inactive) | 51.8 µM (inactive) | 55.1 µM (inactive) | 71 µM (inactive) | 53 µM (inactive) | 51.1 µM (inactive) | > 100 µM (inactive) | > 100 µM (inactive) | > 100 µM (inactive) | > 100 µM (inactive) | – | > 100 µM (inactive) | 30.5 µM (inactive) | > 100 µM (inactive) | 44.1 µM (inactive) | > 100 µM (inactive) | > 100 µM (inactive) |
| COc1c(Br)cc(Br)c(OC)c1-c1ccc[nH]1 | 13.3 µM (inactive) | 31.6 µM (inactive) | > 100 µM (inactive) | 22.3 µM (inactive) | > 100 µM (inactive) | > 100 µM (inactive) | 43.9 µM (inactive) | > 100 µM (inactive) | 22.1 µM (inactive) | > 100 µM (inactive) | > 100 µM (inactive) | > 100 µM (inactive) | – | > 100 µM (inactive) | 78.9 µM (inactive) | – | – | – | – | – |
| O=C1Nc2ccccc2/C1=N/NC(=S)NCc1ccccn1 | 0.0951 µM (active) | < 0.01 µM (active) | 0.483 µM (active) | < 0.01 µM (active) | 0.698 µM (active) | 0.371 µM (active) | 0.604 µM (active) | 0.533 µM (active) | 1.33 µM (inactive) | 10.5 µM (inactive) | 0.366 µM (active) | 2.36 µM (inactive) | 0.678 µM (active) | – | < 0.01 µM (active) | < 0.01 µM (active) | 0.698 µM (active) | < 0.01 µM (active) | 0.418 µM (active) | 0.0508 µM (active) |
| O=[N+]([O-])c1ccc(C(Nc2ccccc2)c2ccc3cccnc3c2O)cc1 (configuration not stated) | 6.25 µM (inactive) | 3.37 µM (inactive) | 7.48 µM (inactive) | 12.6 µM (inactive) | 7.94 µM (inactive) | 6.5 µM (inactive) | 3.78 µM (inactive) | 11.5 µM (inactive) | 5.69 µM (inactive) | 8.2 µM (inactive) | 3.72 µM (inactive) | 40.6 µM (inactive) | 7.74 µM (inactive) | – | 2.17 µM (inactive) | 0.474 µM (active) | 9.14 µM (inactive) | 4.83 µM (inactive) | 3.67 µM (inactive) | 10.8 µM (inactive) |
| CCN(CC)CC/N=c1\c2cc(OC)ccc2[nH]c2c([N+](=O)[O-])ccc(NCCN(CC)CC)c12 | 2.33 µM (inactive) | 0.989 µM (active) | 1.18 µM (inactive) | 0.306 µM (active) | 0.875 µM (active) | 0.794 µM (active) | 0.955 µM (active) | 1.86 µM (inactive) | 1.15 µM (inactive) | 1.57 µM (inactive) | 1.06 µM (active) | 4.11 µM (inactive) | 0.794 µM (active) | – | 0.258 µM (active) | 0.16 µM (active) | 2.37 µM (inactive) | 0.698 µM (active) | 1.01 µM (active) | 0.706 µM (active) |
| COC(=O)C(CCC(=O)CCl)N1C(=O)c2ccccc2C1=O (configuration not stated) | 15.2 µM (inactive) | 2.53 µM (inactive) | 16.1 µM (inactive) | 2.38 µM (inactive) | 20.2 µM (inactive) | 1.57 µM (inactive) | 18.7 µM (inactive) | 9.89 µM (inactive) | 14.8 µM (inactive) | 15.9 µM (inactive) | 12.2 µM (inactive) | 10.7 µM (inactive) | 18.7 µM (inactive) | – | 1.67 µM (inactive) | 3.39 µM (inactive) | 16.9 µM (inactive) | 4.57 µM (inactive) | 9.42 µM (inactive) | 12.9 µM (inactive) |
| Cc1c(F)c(NC(=O)CN(C)C)c2c(=O)cc(-c3ccc(NC(=O)CN(C)C)c(F)c3)oc2c1F | 10.9 µM (inactive) | 17.1 µM (inactive) | 16.6 µM (inactive) | 13.6 µM (inactive) | 13.4 µM (inactive) | 14.9 µM (inactive) | 12.6 µM (inactive) | 17.3 µM (inactive) | 18.9 µM (inactive) | 22.8 µM (inactive) | 17.3 µM (inactive) | 21.5 µM (inactive) | 16 µM (inactive) | – | 21.5 µM (inactive) | 1.5 µM (inactive) | 13.6 µM (inactive) | 13.4 µM (inactive) | 14.8 µM (inactive) | 16 µM (inactive) |
